l = locked nucleic acid (LNA); d = 2'-deoxy (DNA)

For data set [1], the system named is hCD39 mRNA. Nature of the data set: hCD39 mRNA knockdown efficacy screen in A-172 cells (single dose, gymnotic delivery, QuantiGene Singleplex). The note with it: 10 μM, 3 days; for Mean hCD39 mRNA expression (relative to untreated cells set as 1): first screening round; for Mean hCD39 mRNA expression (relative to untreated cells set as 1) / Relative hCD39 mRNA expression (compared to non-treated cells): normalized to HPRT1; for Relative hCD39 mRNA expression (compared to non-treated cells): second screening round. It counts as cell-based, human. As for the experimental part: (§1) FIGS. 2A to 2D depict hCD39 mRNA knockdown efficacy of hCD39 antisense oligonucleotides in human cancer cell lines HDLM-2 (human Hodgkin Lymphoma) in a first and second screening round (FIGS. 2A-1 and 2A-2) and 2B-1 and 2B-2 and A-172 (human glioblastoma) in a first and second screening round (FIGS. 2C-1 and 2C-2) and 2D-1 and 2D-2. HDLM-2 and A-172 cells were treated for 3 days with 10 μM of the respective antisense oligonucleotide. As negative control, cells were treated with neg1, an antisense oligonucleotide having the sequence CGTTTAGGCTATGTACTT (SEQ ID NO:99) (described in WO2014154843 A1). Residual hCD39 mRNA expression relative to untreated cells is depicted. Expression values were normalized to expression of the housekeeping gene HPRT1. Depicted is the mean of triplicate wells+/−SD.
(§2) FIGS. 6A-6B depicts a third screening round where further antisense oligonucleotides were designed. These antisense oligonucleotides were based on efficient antisense oligonucleotides from the first and second screening round. Therefore, hCD39 antisense oligonucleotides were tested in human cancer cell lines HDLM-2 (human Hodgkin's lymphoma) (FIG. 6A) and A-172 (human glioblastoma) (FIG. 6B). HDLM-2 and A-172 cells were treated for 3 days with 10 μM of the respective antisense oligonucleotide. […] Residual hCD39 mRNA expression relative to untreated cells (set as 1) is depicted.
(§3) In order to analyze the efficacy of hCD39 antisense oligonucleotides of the present invention with regard to the knockdown of hCD39 mRNA expression in cancer cell lines, HDLM-2 (human Hodgkin Lymphoma, DSMZ) and A-172 (human glioblastoma, ATCC) cells were treated with a single dose (concentration: 10 μM without addition of any transfection reagent; this process is called gymnotic delivery) of the respective antisense oligonucleotide as shown in FIG. 2A to 2D. hCD39 and HPRT1 mRNA expression was analyzed three days later using the QuantiGene Singleplex assay (Affymetrix) and hCD39 expression values were normalized to HPRT1 values. […] Values of the mean normalized mRNA expression of hCD39 compared to non-treated cells are listed for A-172 (Table 4 for first screening round and Table 5 for second screening round) and HDLM-2 cells (Table 6 for first screening round and Table 7 for second screening round) in the following:
(§4) For a third screening round, new antisense oligonucleotides were designed. These antisense oligonucleotides were based on efficient antisense oligonucleotides from the first screening round with modifications in length, exact position on mRNA and chemical modification pattern. Therefore, hCD39 antisense oligonucleotides were tested in human cancer cell lines (FIG. 6A, Table 10) HDLM-2 (human Hodgkin's lymphoma) and (FIG. 6B, Table 11) A-172 (human glioblastoma). HDLM-2 and A-172 cells were treated for 3 days with 10 μM of the respective antisense oligonucleotide. […] Residual hCD39 mRNA expression relative to untreated cells (set as 1) is depicted.

Data set [2] deals with hCD39 mRNA. The data set can be described thus: hCD39 mRNA knockdown efficacy screen in HDLM-2 cells (single dose, gymnotic delivery, QuantiGene Singleplex). Further details: key to Relative hCD39 mRNA expression (compared to non-treated cells): *: values are below detection limit. The following applies: 10 μM, 3 days; for Mean hCD39 mRNA expression normalized to HPRT1 relative to untreated control = 1: first screening round; for Relative hCD39 mRNA expression (compared to non-treated cells): second screening round, normalized to HPRT1. It counts as cell-based, human. How it is done:
as §1, §2, §3, §4

On to “+C*+C*+C*T*C*T*C*A*C*T*A*A*A*+T*+T*+A (antisense CCCTCTCACTAAATTA; sugars from the 5' end l3 d10 l3, all phosphorothioate, methylation of C not given here) [A04036H]”, for which, in the data set with hCD39 mRNA [1], the “Mean hCD39 mRNA expression (relative to untreated cells set as 1)” value was determined as 0.55 and the “Relative hCD39 mRNA expression (compared to non-treated cells)” value is on record as 0.28. In the data set with hCD39 mRNA [2], the “Mean hCD39 mRNA expression normalized to HPRT1 relative to untreated control = 1” value turned out to be 0.26 and the “Relative hCD39 mRNA expression (compared to non-treated cells)” value is listed as 0.01.

Take “+C*+C*C*T*G*G*A*T*C*T*T*G*C*C*+A*+A*+T (antisense CCCTGGATCTTGCCAAT; sugars from the 5' end l2 d12 l3, all phosphorothioate, methylation of C not given here) [A04049H]”: the “Relative hCD39 mRNA expression (compared to non-treated cells)” value in the data set on hCD39 mRNA [1] is listed as 0.45; in the data set with hCD39 mRNA [2] it was “*”.

Take “+C*+T*+A*T*G*C*T*G*A*A*C*C*+A*+C*+C (antisense CTATGCTGAACCACC; sugars from the 5' end l3 d9 l3, all phosphorothioate, methylation of C not given here) [A04005H]”: in the data set with hCD39 mRNA [1], the “Mean hCD39 mRNA expression (relative to untreated cells set as 1)” value came to 0.11 and the “Relative hCD39 mRNA expression (compared to non-treated cells)” value was 0.11. In addition, in the data set with hCD39 mRNA [2], the “Mean hCD39 mRNA expression normalized to HPRT1 relative to untreated control = 1” value amounted to 0.21 and the “Relative hCD39 mRNA expression (compared to non-treated cells)” value was 0.21.

Regarding “+C*+T*+C*C*A*G*C*G*T*A*A*G*+A*+T (antisense CTCCAGCGTAAGAT; sugars from the 5' end l3 d9 l2, all phosphorothioate, methylation of C not given here) [A04002H]”, the “Relative hCD39 mRNA expression (compared to non-treated cells)” value was determined as 0.96 in the data set with hCD39 mRNA [1] and 0.53 in the data set on hCD39 mRNA [2].

On to “+C*+T*+G*A*C*T*G*A*A*T*T*T*G*+C*+C*+C (antisense CTGACTGAATTTGCCC; sugars from the 5' end l3 d10 l3, all phosphorothioate, methylation of C not given here) [A04021H]”, for which, in the data set with hCD39 mRNA [1], the “Mean hCD39 mRNA expression (relative to untreated cells set as 1)” value turned out to be 0.16 and the “Relative hCD39 mRNA expression (compared to non-treated cells)” value was determined as 0.16. In the data set with hCD39 mRNA [2], the “Mean hCD39 mRNA expression normalized to HPRT1 relative to untreated control = 1” value was 0.11 and the “Relative hCD39 mRNA expression (compared to non-treated cells)” value was 0.11.

As to “+C*C*T*A*C*C*C*A*G*G*A*T*A*G*+T*+C (antisense CCTACCCAGGATAGTC; sugars from the 5' end l1 d13 l2, all phosphorothioate, methylation of C not given here) [A04035H]”, the “Relative hCD39 mRNA expression (compared to non-treated cells)” value in the data set on hCD39 mRNA [1] was determined as 0.37. Moreover, in the data set with hCD39 mRNA [2], the “Mean hCD39 mRNA expression normalized to HPRT1 relative to untreated control = 1” value turned out to be 0.17 and the “Relative hCD39 mRNA expression (compared to non-treated cells)” value is on record as 0.18.

For “+C*T*+T*G*C*C*A*T*A*G*A*G*G*C*+G*A*+A (antisense CTTGCCATAGAGGCGAA; sugars from the 5' end ldldddddddddddldl, all phosphorothioate, methylation of C not given here) [A04041H]”, in the data set on hCD39 mRNA [1], the “Mean hCD39 mRNA expression (relative to untreated cells set as 1)” value came to 0.46 and the “Relative hCD39 mRNA expression (compared to non-treated cells)” value is 0.24. Moreover, in the data set with hCD39 mRNA [2], the “Mean hCD39 mRNA expression normalized to HPRT1 relative to untreated control = 1” value stood at 0.18 and the “Relative hCD39 mRNA expression (compared to non-treated cells)” value was “*”.

“+G*+A*+G*A*G*A*A*T*G*T*A*G*G*T*+A*C*+C (antisense GAGAGAATGTAGGTACC; sugars from the 5' end l3 d11 l1 d1 l1, all phosphorothioate, methylation of C not given here) [A04048H]”: in the data set with hCD39 mRNA [1], the “Mean hCD39 mRNA expression (relative to untreated cells set as 1)” value amounted to 0.09 and the “Relative hCD39 mRNA expression (compared to non-treated cells)” value worked out at 0.05. Besides, in the data set on hCD39 mRNA [2], the “Mean hCD39 mRNA expression normalized to HPRT1 relative to untreated control = 1” value was 0.05 and the “Relative hCD39 mRNA expression (compared to non-treated cells)” value is given as 0.36.

As to “+G*+A*+G*G*C*G*A*A*A*T*T*G*C*A*+G*+A (antisense GAGGCGAAATTGCAGA; sugars from the 5' end l3 d11 l2, all phosphorothioate, methylation of C not given here) [A04024H]”, in the data set on hCD39 mRNA [1], the “Mean hCD39 mRNA expression (relative to untreated cells set as 1)” value is recorded as 0.45 and the “Relative hCD39 mRNA expression (compared to non-treated cells)” value was found to be 0.45. Besides, in the data set on hCD39 mRNA [2], the “Mean hCD39 mRNA expression normalized to HPRT1 relative to untreated control = 1” value was found to be 0.15 and the “Relative hCD39 mRNA expression (compared to non-treated cells)” value is listed as 0.15.

As for “+G*+A*C*T*A*T*G*C*T*G*A*A*C*+C*+A*+C (antisense GACTATGCTGAACCAC; sugars from the 5' end l2 d11 l3, all phosphorothioate, methylation of C not given here) [A04023H]”, in the data set with hCD39 mRNA [1], the “Mean hCD39 mRNA expression (relative to untreated cells set as 1)” value was found to be 0.09 and the “Relative hCD39 mRNA expression (compared to non-treated cells)” value was 0.10. In the data set on hCD39 mRNA [2], the “Mean hCD39 mRNA expression normalized to HPRT1 relative to untreated control = 1” value is reported as 0.06 and the “Relative hCD39 mRNA expression (compared to non-treated cells)” value amounted to 0.06.

For the substance “+G*+A*G*T*A*C*A*A*C*T*G*A*+A*+C*+C (antisense GAGTACAACTGAACC; sugars from the 5' end l2 d10 l3, all phosphorothioate, methylation of C not given here) [A04018H]”, in the data set on hCD39 mRNA [1], the “Mean hCD39 mRNA expression (relative to untreated cells set as 1)” value is 0.19 and the “Relative hCD39 mRNA expression (compared to non-treated cells)” value is listed as 0.20. In the data set on hCD39 mRNA [2], the “Mean hCD39 mRNA expression normalized to HPRT1 relative to untreated control = 1” value amounted to 0.12 and the “Relative hCD39 mRNA expression (compared to non-treated cells)” value is 0.12.

Regarding “+G*+C*+C*C*C*A*A*A*A*T*C*C*C*C*+C*+T*+G (antisense GCCCCAAAATCCCCCTG; sugars from the 5' end l3 d11 l3, all phosphorothioate, methylation of C not given here) [A04047H]”, the “Relative hCD39 mRNA expression (compared to non-treated cells)” value in the data set with hCD39 mRNA [1] is reported as 0.43; in the data set on hCD39 mRNA [2], “*”.

As for “+G*+C*+C*C*T*G*A*T*G*T*T*T*G*+A*+A*+T (antisense GCCCTGATGTTTGAAT; sugars from the 5' end l3 d10 l3, all phosphorothioate, methylation of C not given here) [A04054H]”, the “Residual hCD39 mRNA expression relative to untreated cells (set as 1)” value in the data set with hCD39 mRNA [1] (third screening round) is 0.60; with hCD39 mRNA [2] (third screening round), 0.13.

With “+G*+C*+C*T*T*G*A*A*C*A*C*T*G*C*+G*+A (antisense GCCTTGAACACTGCGA; sugars from the 5' end l3 d11 l2, all phosphorothioate, methylation of C not given here) [A04032H]”, in the data set on hCD39 mRNA [1], the “Mean hCD39 mRNA expression (relative to untreated cells set as 1)” value is 0.19 and the “Relative hCD39 mRNA expression (compared to non-treated cells)” value came to 0.10. Besides, in the data set on hCD39 mRNA [2], the “Mean hCD39 mRNA expression normalized to HPRT1 relative to untreated control = 1” value came out at 0.06 and the “Relative hCD39 mRNA expression (compared to non-treated cells)” value stood at 0.01.

“+G*+C*C*A*T*A*G*G*C*A*C*C*+T*+T*+C (antisense GCCATAGGCACCTTC; sugars from the 5' end l2 d10 l3, all phosphorothioate, methylation of C not given here) [A04004H]”: in the data set with hCD39 mRNA [1], the “Mean hCD39 mRNA expression (relative to untreated cells set as 1)” value worked out at 0.65 and the “Relative hCD39 mRNA expression (compared to non-treated cells)” value stood at 0.66. Moreover, in the data set with hCD39 mRNA [2], the “Mean hCD39 mRNA expression normalized to HPRT1 relative to untreated control = 1” value amounted to 0.22 and the “Relative hCD39 mRNA expression (compared to non-treated cells)” value was 0.21.

Source of the values: patent US11959083B2, “Immunosuppression-reverting oligonucleotides inhibiting the expression of CD39” (Secarna Pharmaceuticals GmbH & Co. KG, priority 2016, dated 2024).
